Results: ChEMBL document CHEMBL5316327, “Design and Synthesis of Orally Active Quinolyl Pyrazinamides as Sigma 2 Receptor Ligands for the Treatment of Pancreatic Cancer” (J Med Chem, 2023)
The source made the active and inactive calls. No cut-off for these calls is given here.

Assays:
[1] = molecular target: D(1B) dopamine receptor (Homo sapiens, UniProt P21918); assay: Binding affinity to dopamine D5 receptor (unknown origin) assessed as inhibition constant
[2] = molecular target: Muscarinic acetylcholine receptor M1 (Homo sapiens, UniProt P11229); assay: Binding affinity to M1 receptor (unknown origin) assessed as inhibition constant
Chain of Muscarinic acetylcholine receptor M1 (P11229 whole entry): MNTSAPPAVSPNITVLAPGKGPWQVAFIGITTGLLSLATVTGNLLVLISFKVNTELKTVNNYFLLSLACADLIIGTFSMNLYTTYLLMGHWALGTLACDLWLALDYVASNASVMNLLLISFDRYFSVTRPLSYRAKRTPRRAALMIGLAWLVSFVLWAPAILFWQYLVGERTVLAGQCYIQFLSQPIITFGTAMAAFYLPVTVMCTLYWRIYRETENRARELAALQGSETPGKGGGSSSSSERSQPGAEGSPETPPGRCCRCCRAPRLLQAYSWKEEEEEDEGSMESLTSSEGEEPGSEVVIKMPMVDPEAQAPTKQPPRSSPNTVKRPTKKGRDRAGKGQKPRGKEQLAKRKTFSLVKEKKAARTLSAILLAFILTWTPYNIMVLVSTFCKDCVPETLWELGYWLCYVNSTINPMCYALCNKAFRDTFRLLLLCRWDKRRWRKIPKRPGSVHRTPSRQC

[3] = molecular target: 5-hydroxytryptamine receptor 1B (Homo sapiens, UniProt P28222); assay: Binding affinity to 5-HT1B receptor (unknown origin) assessed as inhibition constant
Chain of 5-hydroxytryptamine receptor 1B (P28222 whole entry): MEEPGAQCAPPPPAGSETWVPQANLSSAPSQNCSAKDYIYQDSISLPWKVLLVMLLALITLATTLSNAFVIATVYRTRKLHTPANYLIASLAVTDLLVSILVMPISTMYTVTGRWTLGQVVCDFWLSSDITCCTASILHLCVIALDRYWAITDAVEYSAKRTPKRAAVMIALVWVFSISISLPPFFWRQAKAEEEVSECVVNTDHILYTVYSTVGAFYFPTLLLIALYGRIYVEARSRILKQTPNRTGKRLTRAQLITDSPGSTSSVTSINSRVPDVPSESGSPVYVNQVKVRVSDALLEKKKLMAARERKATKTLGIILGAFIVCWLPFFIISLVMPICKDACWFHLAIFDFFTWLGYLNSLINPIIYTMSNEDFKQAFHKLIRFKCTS

[4] = molecular target: 5-hydroxytryptamine receptor 2B (Homo sapiens, UniProt P41595); assay: Binding affinity to 5-HT2B receptor (unknown origin) assessed as inhibition constant
Chain of 5-hydroxytryptamine receptor 2B (P41595 whole entry): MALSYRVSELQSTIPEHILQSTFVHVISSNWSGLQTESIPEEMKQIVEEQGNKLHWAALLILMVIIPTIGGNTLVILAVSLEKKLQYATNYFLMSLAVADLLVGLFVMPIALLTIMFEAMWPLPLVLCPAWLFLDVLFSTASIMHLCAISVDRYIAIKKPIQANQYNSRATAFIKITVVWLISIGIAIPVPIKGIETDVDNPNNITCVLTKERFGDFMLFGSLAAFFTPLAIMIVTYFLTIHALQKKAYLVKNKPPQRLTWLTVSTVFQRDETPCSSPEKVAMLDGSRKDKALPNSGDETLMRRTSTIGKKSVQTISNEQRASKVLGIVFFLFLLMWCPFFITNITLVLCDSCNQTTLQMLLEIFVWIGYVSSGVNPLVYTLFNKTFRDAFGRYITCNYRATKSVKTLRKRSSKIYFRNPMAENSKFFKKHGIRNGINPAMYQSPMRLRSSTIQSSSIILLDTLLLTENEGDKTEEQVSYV

[5] = molecular target: 5-hydroxytryptamine receptor 2A (Homo sapiens, UniProt P28223); assay: Binding affinity to 5-HT2A receptor (unknown origin) assessed as inhibition constant
Chain of 5-hydroxytryptamine receptor 2A (P28223 whole entry): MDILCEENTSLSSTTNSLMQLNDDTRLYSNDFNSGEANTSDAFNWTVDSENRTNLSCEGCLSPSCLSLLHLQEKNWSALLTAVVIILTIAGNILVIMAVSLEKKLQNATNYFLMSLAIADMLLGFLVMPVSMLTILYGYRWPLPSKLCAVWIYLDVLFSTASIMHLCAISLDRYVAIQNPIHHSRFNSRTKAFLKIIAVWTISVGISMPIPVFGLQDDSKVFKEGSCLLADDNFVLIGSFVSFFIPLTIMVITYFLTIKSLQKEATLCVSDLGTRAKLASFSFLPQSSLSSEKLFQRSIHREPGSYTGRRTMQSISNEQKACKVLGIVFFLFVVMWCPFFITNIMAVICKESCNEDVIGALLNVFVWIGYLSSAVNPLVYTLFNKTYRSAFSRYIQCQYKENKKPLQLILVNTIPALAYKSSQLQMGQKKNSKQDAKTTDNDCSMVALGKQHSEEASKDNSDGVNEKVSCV

[6] = molecular target: Beta-1 adrenergic receptor (Homo sapiens, UniProt P08588); assay: Binding affinity to beta1 receptor (unknown origin) assessed as inhibition constant
Chain of Beta-1 adrenergic receptor (P08588 whole entry): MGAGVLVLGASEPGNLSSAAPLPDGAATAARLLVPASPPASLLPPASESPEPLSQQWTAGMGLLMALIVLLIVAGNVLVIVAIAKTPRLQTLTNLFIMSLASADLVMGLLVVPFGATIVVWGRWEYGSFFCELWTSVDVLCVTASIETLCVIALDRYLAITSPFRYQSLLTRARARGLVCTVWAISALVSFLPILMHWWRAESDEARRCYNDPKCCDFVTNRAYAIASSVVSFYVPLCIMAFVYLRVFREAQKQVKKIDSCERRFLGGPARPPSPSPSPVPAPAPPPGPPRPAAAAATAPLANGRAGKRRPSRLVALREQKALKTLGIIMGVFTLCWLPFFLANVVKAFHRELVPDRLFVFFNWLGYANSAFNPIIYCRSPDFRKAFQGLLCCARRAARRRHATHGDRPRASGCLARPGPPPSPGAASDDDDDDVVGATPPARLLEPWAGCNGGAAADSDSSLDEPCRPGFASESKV

[7] = Metabolic stability in mouse liver microsomes assessed as half life at 10 uM measured upto 60 mins in presence of NADPH by LC-MS/MS analysis; format: ADME, Microsome; conditions: 1 h
[8] = Cytotoxicity against HEK293 cells measured after 72 hrs by MTT assay; format: toxicity, cell-based; conditions: human
[9] = test system: PANC-1; assay: Induction of autophagy in human PANC-1 cells assessed as upregulation of LC-3 level at 1 to 10 uM measured after 24 hrs; format: functional, cell-based; conditions: dose 1-10 µM
[10] = test system: MIA PaCa-2; assay: Induction of apoptosis in human MIA PaCa-2 cells assessed as viable cells at […] measured after 48 hrs by Annexin V-Alexa Fluor 488/propidium iodide staining based flow cytometry (reference value: 82.23%); format: functional; conditions: dose 2.5 µM, read-out: Activity
[11] = test system: MIA PaCa-2; assay: Induction of apoptosis in human MIA PaCa-2 cells assessed as early apoptotic cells at […] measured after 48 hrs by Annexin V-Alexa Fluor 488/propidium iodide staining based flow cytometry (reference value: 4.11%); format: functional; conditions: dose 2.5 µM
[12] = test system: HCT-116; assay: Induction of apoptosis in human HCT-116 cells assessed as viable cells at 10.0 uM measured after 48 hrs by Annexin V-Alexa Fluor 488/propidium iodide staining based flow cytometry (reference value: 79.69%); format: functional; conditions: read-out: Activity
[13] = test system: HCT-116; assay: Induction of apoptosis in human HCT-116 cells assessed as early apoptotic cells at 5.0 uM measured after 48 hrs by Annexin V-Alexa Fluor 488/propidium iodide staining based flow cytometry (reference value: 2.77%); format: functional
[14] = test system: HCT-116; assay: Induction of apoptosis in human HCT-116 cells assessed as late apoptotic cells at […] measured after 48 hrs by Annexin V-Alexa Fluor 488/propidium iodide staining based flow cytometry (reference value: 8.48%); format: functional; conditions: dose 2.5 µM
[15] = test system: HCT-116; assay: Induction of apoptosis in human HCT-116 cells assessed as necrotic cells at 1.0 uM measured after 48 hrs by Annexin V-Alexa Fluor 488/propidium iodide staining based flow cytometry (reference value: 9.06%); format: functional
[16] = test system: MIA PaCa-2; assay: Induction of cell cycle arrest in human MIA PaCa-2 cells assessed as accumulation of cells in S phase at 1 uM measured after 24 hrs by propidium iodide staining-based flow cytometric analysis (reference value: 31%); format: functional
[17] = test system: MIA PaCa-2; assay: Induction of cell cycle arrest in human MIA PaCa-2 cells assessed as accumulation of cells in S phase at 10 uM measured after 24 hrs by propidium iodide staining-based flow cytometric analysis (reference value: 31%); format: functional
[18] = test system: MIA PaCa-2; assay: Induction of cell cycle arrest in human MIA PaCa-2 cells assessed as accumulation of cells in G2/M phase at 1 uM measured after 24 hrs by propidium iodide staining-based flow cytometric analysis (reference value: 16%); format: functional
[19] = test system: HCT-116; assay: Induction of cell cycle arrest in human HCT-116 cells assessed as accumulation of cells in G0/G1 phase at 10 uM measured after 24 hrs by propidium iodide staining-based flow cytometric analysis (reference value: 43%); format: functional
[20] = test system: HCT-116; assay: Induction of cell cycle arrest in human HCT-116 cells assessed as accumulation of cells in S phase at 5 uM measured after 24 hrs by propidium iodide staining-based flow cytometric analysis (reference value: 47%); format: functional
[21] = test system: HCT-116; assay: Induction of cell cycle arrest in human HCT-116 cells assessed as accumulation of cells in G2/M phase at 1 uM measured after 24 hrs by propidium iodide staining-based flow cytometric analysis (reference value: 10%); format: functional
[22] = AUC (0 to time of last detectable concentration) in CD-1 mouse plasma at 10 mg/kg, iv; format: ADME, organism-based; design: dose 10 mg/kg, route iv
[23] = AUC (0 to infinity) in CD-1 mouse plasma at 20 mg/kg, po; format: ADME, organism-based; design: dose 20 mg/kg, route po
[24] = Half life in CD-1 mouse plasma at 10 mg/kg, iv; format: ADME, organism-based
[25] = Clearance in CD-1 mouse plasma at 10 mg/kg, iv; format: ADME, organism-based
[26] = Apparent oral clearance in CD-1 mouse plasma at 20 mg/kg, po; format: ADME, organism-based
[27] = Oral bioavailability in CD-1 mouse plasma at 20 mg/kg; format: ADME, organism-based; conditions: in vivo
[28] = Toxicity in C57BL/6 mouse assessed as effect on body weight at 60 mg/kg, ip measured upto 28 days; format: organism-based; conditions: in vivo, 672 h, time < 28 day
[29] = test system: MIA PaCa-2; assay: Additive cytotoxicity against human MIA PaCa-2 cells at upto 1 uM measured after 7 days in presence of copper chloride by crystal violet staining based analysis; format: functional, cell-based; conditions: time 7.0 day
[30] = test system: HCT-116; assay: Antagonistic cytotoxicity against human HCT-116 cells at upto 1 uM measured after 6 days in presence of elesclomol by crystal violet staining based analysis; format: functional, cell-based; conditions: time 6.0 day
[31] = test system: MIA PaCa-2; assay: Inhibition of colony formation in human MIA PaCa-2 cells at 0.04 to 30 uM pretreated with ammonium tetrathiomolybdate for 4 hrs followed by compound addition and measured after 6 days; format: functional, cell-based; conditions: dose 0.04-30 µM, time 6.0 day
[32] = test system: MIA PaCa-2; assay: Additive ferroptosis activity in human MIA-PaCa-2 cells at upto 1 uM measured after 7 days in presence of deferoxamine by crystal violet staining based analysis; format: functional, cell-based; conditions: time 7.0 day
[33] = test system: MIA PaCa-2; assay: Synergistic cytotoxicity in human MIA PaCa-2 cells at upto 1 uM measured after 7 days in presence of irinotecan by crystal violet staining based analysis; format: functional, cell-based; conditions: time 7.0 day
[34] = test system: MIA PaCa-2; assay: Synergistic cytotoxicity in human MIA PaCa-2 cells at upto 1 uM measured after 7 days in presence of paclitaxel by crystal violet staining based analysis; format: functional, cell-based; conditions: time 7.0 day
[35] = test system: MIA PaCa-2; assay: Synergistic cytotoxicity in human MIA PaCa-2 cells at upto 1 uM measured after 7 days in presence of oxaliplatin by crystal violet staining based analysis; format: functional, cell-based; conditions: time 7.0 day
[36] = test system: MIA PaCa-2; assay: Synergistic cytotoxicity in human MIA PaCa-2 cells at upto 1 uM measured after 7 days in presence of vemurafenib by crystal violet staining based analysis; format: functional, cell-based; conditions: time 7.0 day
[37] = test system: MIA PaCa-2; assay: Synergistic cytotoxicity in human MIA PaCa-2 cells at upto 1 uM measured after 7 days in presence of CI-27 by crystal violet staining based analysis; format: functional, cell-based; conditions: time 7.0 day
[38] = test system: MIA PaCa-2; assay: Synergistic cytotoxicity in human MIA PaCa-2 cells at upto 1 uM measured after 7 days in presence of SC144 by crystal violet staining based analysis; format: functional, cell-based; conditions: time 7.0 day

Chain of D(1B) dopamine receptor (P21918 whole entry): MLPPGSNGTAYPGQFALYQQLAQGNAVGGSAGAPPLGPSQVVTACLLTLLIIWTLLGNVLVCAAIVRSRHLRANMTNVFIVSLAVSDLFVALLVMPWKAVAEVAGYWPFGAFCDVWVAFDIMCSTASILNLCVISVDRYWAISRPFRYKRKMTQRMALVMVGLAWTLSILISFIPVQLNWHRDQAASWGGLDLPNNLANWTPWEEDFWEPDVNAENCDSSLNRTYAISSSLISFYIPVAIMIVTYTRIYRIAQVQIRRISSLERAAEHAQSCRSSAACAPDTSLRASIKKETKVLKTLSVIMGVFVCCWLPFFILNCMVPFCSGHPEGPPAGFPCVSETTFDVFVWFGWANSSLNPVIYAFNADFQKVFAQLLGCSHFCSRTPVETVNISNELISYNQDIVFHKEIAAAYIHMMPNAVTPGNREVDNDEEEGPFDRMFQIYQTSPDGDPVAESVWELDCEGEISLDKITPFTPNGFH

Ki [1]: 1.55 µM
Ki [2]: 4.2 µM
Ki [3]: 0.646 µM
Ki [4]: 0.427 µM
Ki [5]: 1.25 µM
Ki [6]: 6.35 µM
t1/2 [7]: 1 h
AUC [22]: 2600 ng·h/mL
AUC(0-inf) [23]: 3390 ng·h/mL
half-life [24]: 4.7 h
clearance [25]: 62.2 mL/min/kg
CL/F [26]: 98.3 mL/min/kg
F [27]: 60%
SMILES: CCN(CC)CCCC(C)Nc1cnc(C(=O)Nc2ccc(Cl)c3cccnc23)cn1 (stereo not drawn)
IC50 at 72 h [8]: 1.2 µM
Activity [9]: Active
viability at […] [10]: 54.5%
Activity [11]: 13.89%
viability at 10 µM [12]: 32.9%
Activity [13]: 12.38%
Activity [14]: 20.26%
Activity [15]: 9.72%
Activity [16]: 40%
Activity [17]: 14%
Activity [18]: 13%
Activity [19]: 57%
Activity [20]: 35%
Activity [21]: 25%
Activity [28]: Non-Toxic
Activity [29]: Active
Activity [30]: inactive
inhibition [31]: inactive
Activity [32]: Active
Activity [33]: inactive
Activity [34]: inactive
Activity [35]: inactive
Activity [36]: inactive
Activity [37]: inactive
Activity [38]: inactive
